Measured values as given in ChEMBL document CHEMBL1201861, “Genomics of Drug Sensitity in Cancer screening data, Wellcome Trust Sanger Institute”.

Assays:
Assay in all cases: cells
COLO-829 = format: functional, cell-based, Homo sapiens; conditions: Homo sapiens, COLO-829
Description: SANGER: Inhibition of human COLO-829 cell growth in a cell viability assay.

Calu-3 = format: functional, cell-based, Homo sapiens; conditions: Homo sapiens, Calu-3;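 note: growth inhibition of human Calu-3 cells, determined with a cell viability assay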
Description: SANGER: Inhibition of human Calu-3 cell growth in a cell viability assay.

Calu-6 = format: functional, cell-based, Homo sapiens; conditions: Homo sapiens, Calu-6;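 note: growth of human Calu-6 cells, read out by a cell viability assay, IC50 marking inhibition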
Description: SANGER: Inhibition of human Calu-6 cell growth in a cell viability assay.

D-247MG = format: functional, cell-based, Homo sapiens; conditions: Homo sapiens, D-247MG
Description: SANGER: Inhibition of human D-247MG cell growth in a cell viability assay.

D283 Med = format: functional, cell-based, Homo sapiens; conditions: Homo sapiens, D283 Med
Description: SANGER: Inhibition of human D-283MED cell growth in a cell viability assay.

EGI-1 = format: functional, cell-based, Homo sapiens; conditions: Homo sapiens, EGI-1;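 note: cell viability readout used to gauge growth inhibition of EGI-1 cells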
Description: SANGER: Inhibition of human EGI-1 cell growth in a cell viability assay.

EOL1 = format: functional, cell-based; conditions: Homo sapiens;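 note: growth inhibition of EoL-1 cells, read out by a cell viability assay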
Description: SANGER: Inhibition of human EoL-1-cell cell growth in a cell viability assay.

G-402 = format: functional, cell-based, Homo sapiens; conditions: Homo sapiens, G-402
Description: SANGER: Inhibition of human G-402 cell growth in a cell viability assay.

GOTO = format: functional, cell-based, Homo sapiens; conditions: Homo sapiens, GOTO;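 note: growth inhibition of GOTO cells, read out by a cell viability assay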
Description: SANGER: Inhibition of human GOTO cell growth in a cell viability assay.

HCC2218 = format: functional, cell-based; conditions: Homo sapiens;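 note: cell viability assay read-out, with IC50 given as the concentration that inhibits growth of the cell line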
Description: SANGER: Inhibition of human HCC2218 cell growth in a cell viability assay.

HH = format: functional, cell-based; conditions: Homo sapiens
Description: SANGER: Inhibition of human HH cell growth in a cell viability assay.

HT-29 = format: functional, cell-based, Homo sapiens; conditions: Homo sapiens, HT-29;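 note: growth inhibition of human HT-29 cells, read out by a cell viability assay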
Description: SANGER: Inhibition of human HT-29 cell growth in a cell viability assay.

HuP-T3 = format: functional, cell-based, Homo sapiens; conditions: Homo sapiens, HuP-T3;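 note: HuP-T3 cell growth inhibition, read out with a cell viability assay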
Description: SANGER: Inhibition of human HuP-T3 cell growth in a cell viability assay.

KLE = format: functional, cell-based, Homo sapiens; conditions: Homo sapiens, KLE;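 note: growth inhibition of human KLE cells, read out with a cell viability assay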
Description: SANGER: Inhibition of human KLE cell growth in a cell viability assay.

KP-N-YS = format: functional, cell-based; conditions: Homo sapiens;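 note: cell viability assay measuring inhibition of cell line growth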
Description: SANGER: Inhibition of human KP-N-YS cell growth in a cell viability assay.

LAMA-84 = format: functional, cell-based; conditions: Homo sapiens;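 note: growth inhibition of LAMA-84 cells, read out with a cell viability assay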
Description: SANGER: Inhibition of human LAMA-84 cell growth in a cell viability assay.

LOX IMVI = format: functional, cell-based; conditions: Homo sapiens
Description: SANGER: Inhibition of human LOXIMVI cell growth in a cell viability assay.

LS-1034 = format: functional, cell-based, Homo sapiens; conditions: Homo sapiens, LS-1034
Description: SANGER: Inhibition of human LS-1034 cell growth in a cell viability assay.

MFH-ino = format: functional, cell-based; conditions: Homo sapiens;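 note: growth inhibition of human MFH-ino cells, read out by a cell viability assay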
Description: SANGER: Inhibition of human MFH-ino cell growth in a cell viability assay.

MHH-NB-11 = format: functional, cell-based, Homo sapiens; conditions: Homo sapiens, MHH-NB-11;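 note: growth inhibition of human MHH-NB-11 cells, read out by a cell viability assay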
Description: SANGER: Inhibition of human MHH-NB-11 cell growth in a cell viability assay.

MKN-1 = format: functional, cell-based, Homo sapiens; conditions: Homo sapiens, MKN-1;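 note: growth inhibition of human MKN1 cells, read out by a cell viability measurement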
Description: SANGER: Inhibition of human MKN1 cell growth in a cell viability assay.

MPP-89 = format: functional, cell-based, Homo sapiens; conditions: Homo sapiens, MPP-89;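 note: growth inhibition of human MPP-89 cells, read out with a cell viability assay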
Description: SANGER: Inhibition of human MPP-89 cell growth in a cell viability assay.

MZ2-MEL = format: functional, cell-based, Homo sapiens; conditions: Homo sapiens, MZ2-MEL;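 note: growth inhibition of MZ2-MEL cells read out with a cell viability assay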
Description: SANGER: Inhibition of human MZ2-MEL cell growth in a cell viability assay.

NCI-H1693 = format: functional, cell-based, Homo sapiens; conditions: Homo sapiens, NCI-H1693;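 note: growth inhibition of the human cell line, read out with a cell viability assay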
Description: SANGER: Inhibition of human NCI-H1693 cell growth in a cell viability assay.

NCI-H1993 = format: functional, cell-based, Homo sapiens; conditions: Homo sapiens, NCI-H1993;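 note: growth inhibition of the cancer cell line, assessed with a cell viability assay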
Description: SANGER: Inhibition of human NCI-H1993 cell growth in a cell viability assay.

NCI-H2405 = format: functional, cell-based, Homo sapiens; conditions: Homo sapiens, NCI-H2405;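 note: growth inhibition of the human cell line, read out with a cell viability assay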
Description: SANGER: Inhibition of human NCI-H2405 cell growth in a cell viability assay.

NCI-H292 = format: functional, cell-based, Homo sapiens; conditions: Homo sapiens, NCI-H292;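 note: growth inhibition of NCI-H292 cells, read out with a cell viability assay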
Description: SANGER: Inhibition of human NCI-H292 cell growth in a cell viability assay.

NCI-H358 = format: functional, cell-based, Homo sapiens; conditions: Homo sapiens, NCI-H358;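 note: growth inhibition of NCI-H358 human cells, read out with a cell viability assay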
Description: SANGER: Inhibition of human NCI-H358 cell growth in a cell viability assay.

SH-4 = format: functional, cell-based, Homo sapiens; conditions: Homo sapiens, SH-4;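 note: growth inhibition of SH-4 cells, read out with a cell viability assay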
Description: SANGER: Inhibition of human SH-4 cell growth in a cell viability assay.

SK-MEL-2 = format: functional, cell-based, Homo sapiens; conditions: Homo sapiens, SK-MEL-2;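 note: growth inhibition of human SK-MEL-2 cells measured with a cell viability assay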
Description: SANGER: Inhibition of human SK-MEL-2 cell growth in a cell viability assay.

SK-MES-1 = format: functional, cell-based, Homo sapiens; conditions: Homo sapiens, SK-MES-1;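 note: growth inhibition of human SK-MES-1 cells, read out with a cell viability assay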
Description: SANGER: Inhibition of human SK-MES-1 cell growth in a cell viability assay.

SW1783 = format: functional, cell-based; conditions: Homo sapiens;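 note: cell growth inhibition measured with a viability assay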
Description: SANGER: Inhibition of human SW1783 cell growth in a cell viability assay.

SW 962 = format: functional, cell-based, Homo sapiens; conditions: Homo sapiens, SW 962;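 note: growth inhibition of human SW962 cells, read out by a cell viability assay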
Description: SANGER: Inhibition of human SW962 cell growth in a cell viability assay.

T-24 = format: functional, cell-based, Homo sapiens; conditions: Homo sapiens, T-24;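 note: growth inhibition of T-24 cells, read out with a cell viability assay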
Description: SANGER: Inhibition of human T-24 cell growth in a cell viability assay.

T98G = format: functional, cell-based, Homo sapiens; conditions: Homo sapiens, T98G;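 note: growth inhibition of T98G cells, read out by a cell viability assay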
Description: SANGER: Inhibition of human T98G cell growth in a cell viability assay.

TE-1 = format: functional, cell-based, Homo sapiens; conditions: Homo sapiens, TE-1
Description: SANGER: Inhibition of human TE-1 cell growth in a cell viability assay.

697 = format: functional, cell-based; conditions: Homo sapiens
Description: SANGER: Inhibition of human 697 cell growth in a cell viability assay.

786-0 = format: functional, cell-based, Homo sapiens; conditions: Homo sapiens
Description: SANGER: Inhibition of human 786-0 cell growth in a cell viability assay.

A-375 = format: functional, cell-based, Homo sapiens; conditions: Homo sapiens, A-375;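 note: growth inhibition of A375 cells, read out with a cell viability assay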
Description: SANGER: Inhibition of human A375 cell growth in a cell viability assay.

A704 = format: functional, cell-based, Homo sapiens; conditions: Homo sapiens, A704;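 note: growth inhibition of human A704 cells, read out with a cell viability assay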
Description: SANGER: Inhibition of human A704 cell growth in a cell viability assay.

AGS = format: functional, cell-based, Homo sapiens; conditions: Homo sapiens, AGS;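 note: growth inhibition of AGS cells, determined with a cell viability assay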
Description: SANGER: Inhibition of human AGS cell growth in a cell viability assay.

ASPC1 = format: functional, cell-based, Homo sapiens; conditions: Homo sapiens, ASPC1;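 note: growth inhibition of AsPC-1 cells, read out with a cell viability assay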
Description: SANGER: Inhibition of human AsPC-1 cell growth in a cell viability assay.

BB65-RCC = format: functional, cell-based, Homo sapiens; conditions: Homo sapiens, BB65-RCC;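 note: growth inhibition of the cell line, measured with a cell viability assay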
Description: SANGER: Inhibition of human BB65-RCC cell growth in a cell viability assay.

BEN = format: functional, cell-based, Homo sapiens; conditions: Homo sapiens, BEN;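 note: growth inhibition of the BEN cell line, read out with a cell viability assay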
Description: SANGER: Inhibition of human BEN cell growth in a cell viability assay.

BFTC-905 = format: functional, cell-based, Homo sapiens; conditions: Homo sapiens, BFTC-905
Description: SANGER: Inhibition of human BFTC-905 cell growth in a cell viability assay.

CAL-12T = format: functional, cell-based, Homo sapiens; conditions: Homo sapiens, CAL-12T;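 note: growth inhibition of human CAL-12T cells, read out with a cell viability assay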
Description: SANGER: Inhibition of human CAL-12T cell growth in a cell viability assay.

CAL-27 = format: functional, cell-based, Homo sapiens; conditions: Homo sapiens, CAL-27;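 note: Viability-based readout, IC50 reflecting inhibition of CAL-27 cell growth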
Description: SANGER: Inhibition of human CAL-27 cell growth in a cell viability assay.

TE-11 = format: functional, cell-based, Homo sapiens; conditions: Homo sapiens, TE-11;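 note: growth inhibition of human TE-11 cells, read out by a cell viability assay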
Description: SANGER: Inhibition of human TE-11 cell growth in a cell viability assay.

TE-8 = format: functional, cell-based, Homo sapiens; conditions: Homo sapiens, TE-8;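 note: growth inhibition of TE-8 cells, measured with a cell viability readout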
Description: SANGER: Inhibition of human TE-8 cell growth in a cell viability assay.

UMUC3 = format: functional, cell-based, Homo sapiens; conditions: Homo sapiens, UMUC3;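 note: growth inhibition of human UM-UC-3 cells, read out with a cell viability assay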
Description: SANGER: Inhibition of human UM-UC-3 cell growth in a cell viability assay.

no-10 = format: functional, cell-based, Homo sapiens; conditions: Homo sapiens;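 note: growth inhibition of no-10 cells, read out with a cell viability assay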
Description: SANGER: Inhibition of human no-10 cell growth in a cell viability assay.

CHL-1 = format: functional, cell-based, Homo sapiens; conditions: Homo sapiens, CHL-1;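 note: cell growth inhibition, read out with a cell viability assay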
Description: SANGER: Inhibition of human CHL-1 cell growth in a cell viability assay.

Work on `CN(c1ncccc1CNc1nc(Nc2ccc3c(c2)CC(=O)N3)ncc1C(F)(F)F)S(C)(=O)=O` [PF-00562271] yielded an IC50 (COLO-829) of 752 nM, an IC50 (Calu-3) greater than 2560 nM and an IC50 (Calu-6) greater than 2560 nM. The IC50 (D-247MG) was greater than 2560 nM, the IC50 (D283 Med) was greater than 2560 nM and the IC50 (EGI-1) was greater than 2560 nM. For the same molecule, the IC50 (EOL1) was greater than 2560 nM, the IC50 (G-402) was greater than 2560 nM and the IC50 (GOTO) was greater than 2560 nM. The IC50 (HCC2218) was greater than 2560 nM, the IC50 (HH) was greater than 2560 nM and the IC50 (HT-29) was greater than 2560 nM. The IC50 (HuP-T3) was greater than 2560 nM, the IC50 (KLE) was greater than 2560 nM and the IC50 (KP-N-YS) was greater than 2560 nM. For the same molecule, the IC50 (LAMA-84) was greater than 2560 nM, the IC50 (LOX IMVI) was greater than 2560 nM and the IC50 (LS-1034) was greater than 2560 nM. It also gave an IC50 (MFH-ino) greater than 2560 nM, an IC50 (MHH-NB-11) of 2130 nM and an IC50 (MKN-1) greater than 2560 nM. For the same molecule, the IC50 (MPP-89) was greater than 2560 nM, the IC50 (MZ2-MEL) was greater than 2560 nM and the IC50 (NCI-H1693) was greater than 2560 nM. The IC50 (NCI-H1993) was greater than 2560 nM, the IC50 (NCI-H2405) was greater than 2560 nM and the IC50 (NCI-H292) was greater than 2560 nM. It also gave an IC50 (NCI-H358) greater than 2560 nM, an IC50 (SH-4) greater than 2560 nM and an IC50 (SK-MEL-2) greater than 2560 nM. It also gave an IC50 (SK-MES-1) greater than 2560 nM, an IC50 (SW1783) greater than 2560 nM and an IC50 (SW 962) greater than 2560 nM. For the same molecule, the IC50 (T-24) was greater than 2560 nM, the IC50 (T98G) was greater than 2560 nM and the IC50 (TE-1) was greater than 2560 nM. It also gave an IC50 697 greater than 2560 nM, an IC50 (786-0) greater than 2560 nM and an IC50 (A-375) greater than 2560 nM. It also gave an IC50 (A704) greater than 2560 nM, an IC50 (AGS) of 1520 nM and an IC50 (ASPC1) greater than 2560 nM. For the same molecule, the IC50 (BB65-RCC) was greater than 2560 nM, the IC50 (BEN) was greater than 2560 nM and the IC50 (BFTC-905) was greater than 2560 nM. It also gave an IC50 (CAL-12T) greater than 2560 nM, an IC50 (CAL-27) greater than 2560 nM and an IC50 (TE-11) of 1640 nM. The IC50 (TE-8) was greater than 2560 nM, the IC50 (UMUC3) was greater than 2560 nM and the IC50 (no-10) was greater than 2560 nM. For the same molecule, the IC50 (CHL-1) was greater than 2560 nM.

In the case of `C=CCNC1=C2C[C@@H](C)C[C@H](OC)[C@H](O)[C@@H](C)/C=C(\C)[C@H](OC(N)=O)[C@@H](OC)/C=C\C=C(/C)C(=O)NC(=CC1=O)C2=O` [TANESPIMYCIN], the IC50 (COLO-829) is reported as 120 nM, the IC50 (Calu-3) is reported as greater than 1000 nM and the IC50 (Calu-6) is reported as greater than 1000 nM. For the same molecule, the IC50 (D-247MG) was 94.5 nM, the IC50 (D283 Med) was greater than 1000 nM and the IC50 (EGI-1) was greater than 1000 nM. The IC50 (EOL1) was 222 nM, the IC50 (G-402) was 47.9 nM and the IC50 (GOTO) was 452 nM. It also gave an IC50 (HCC2218) of 24.9 nM, an IC50 (HH) greater than 1000 nM and an IC50 (HT-29) of 69.2 nM. For the same molecule, the IC50 (HuP-T3) was 401 nM, the IC50 (KLE) was greater than 1000 nM and the IC50 (KP-N-YS) was 375 nM. For the same molecule, the IC50 (LAMA-84) was greater than 1000 nM, the IC50 (LOX IMVI) was 58.7 nM and the IC50 (LS-1034) was greater than 1000 nM. The IC50 (MFH-ino) was greater than 1000 nM, the IC50 (MHH-NB-11) was greater than 1000 nM and the IC50 (MKN-1) was 588 nM. For the same molecule, the IC50 (MPP-89) was 141 nM, the IC50 (MZ2-MEL) was 65.5 nM and the IC50 (NCI-H1693) was greater than 1000 nM. For the same molecule, the IC50 (NCI-H1993) was greater than 1000 nM, the IC50 (NCI-H2405) was 346 nM and the IC50 (NCI-H292) was 131 nM. It also gave an IC50 (NCI-H358) of 687 nM, an IC50 (SH-4) of 114 nM and an IC50 (SK-MEL-2) of 90.6 nM. The IC50 (SK-MES-1) was 36.1 nM, the IC50 (SW1783) was 340 nM and the IC50 (SW 962) was 39.5 nM. The IC50 (T-24) was 332 nM, the IC50 (T98G) was 41 nM and the IC50 (TE-1) was 92 nM. The IC50 697 was greater than 1000 nM, the IC50 (786-0) was 154 nM and the IC50 (A-375) was 128 nM. The IC50 (A704) was greater than 1000 nM, the IC50 (AGS) was 19.4 nM and the IC50 (ASPC1) was 152 nM. For the same molecule, the IC50 (BB65-RCC) was 106 nM, the IC50 (BEN) was greater than 1000 nM and the IC50 (BFTC-905) was 315 nM. The IC50 (CAL-12T) was 428 nM, the IC50 (CAL-27) was 190 nM and the IC50 (TE-11) was 80 nM. The IC50 (TE-8) was 113 nM, the IC50 (UMUC3) was 455 nM and the IC50 (no-10) was greater than 1000 nM. For the same molecule, the IC50 (CHL-1) was 22.5 nM.

Work on `CCC1=C[C@@H]2CN(C1)Cc1c([nH]c3ccccc13)[C@@](C(=O)OC)(c1cc3c(cc1OC)N(C)[C@H]1[C@@](O)(C(=O)OC)[C@H](OC(C)=O)[C@]4(CC)C=CCN5CC[C@]31[C@@H]54)C2` [VINORELBINE] yielded an IC50 (COLO-829) of 0.105 nM, an IC50 (Calu-3) of 18 nM and an IC50 (Calu-6) of 5.7 nM. The IC50 (D-247MG) was 12.6 nM, the IC50 (D283 Med) was greater than 64 nM and the IC50 (EGI-1) was greater than 64 nM. It also gave an IC50 (EOL1) of 9.09 nM, an IC50 (G-402) of 32.1 nM and an IC50 (GOTO) greater than 64 nM. The IC50 (HCC2218) was 57.1 nM, the IC50 (HH) was 8.88 nM and the IC50 (HT-29) was 3.24 nM. For the same molecule, the IC50 (HuP-T3) was greater than 64 nM, the IC50 (KLE) was greater than 64 nM and the IC50 (KP-N-YS) was 21.8 nM. It also gave an IC50 (LAMA-84) of 45.8 nM, an IC50 (LOX IMVI) greater than 64 nM and an IC50 (LS-1034) greater than 64 nM. It also gave an IC50 (MFH-ino) of 5.6 nM, an IC50 (MHH-NB-11) of 17.7 nM and an IC50 (MKN-1) of 11.8 nM. It also gave an IC50 (MPP-89) greater than 64 nM, an IC50 (MZ2-MEL) of 43 nM and an IC50 (NCI-H1693) greater than 64 nM. For the same molecule, the IC50 (NCI-H1993) was greater than 64 nM, the IC50 (NCI-H2405) was 50.7 nM and the IC50 (NCI-H292) was 5.05 nM. For the same molecule, the IC50 (NCI-H358) was 5.89 nM, the IC50 (SH-4) was 15.5 nM and the IC50 (SK-MEL-2) was 7.18 nM. It also gave an IC50 (SK-MES-1) of 5.73 nM, an IC50 (SW1783) greater than 64 nM and an IC50 (SW 962) of 27.8 nM. For the same molecule, the IC50 (T-24) was greater than 64 nM, the IC50 (T98G) was 18.9 nM and the IC50 (TE-1) was 13.1 nM. It also gave an IC50 697 of 4.23 nM, an IC50 (786-0) of 2.99 nM and an IC50 (A-375) of 38.2 nM. The IC50 (A704) was greater than 64 nM, the IC50 (AGS) was 6.46 nM and the IC50 (ASPC1) was greater than 64 nM. For the same molecule, the IC50 (BB65-RCC) was 61.8 nM, the IC50 (BEN) was 58.1 nM and the IC50 (BFTC-905) was 3.62 nM. For the same molecule, the IC50 (CAL-12T) was 20.8 nM, the IC50 (CAL-27) was 32 nM and the IC50 (TE-11) was 9.16 nM. It also gave an IC50 (TE-8) of 46 nM, an IC50 (UMUC3) of 21.2 nM and an IC50 (no-10) of 45.6 nM. It also gave an IC50 (CHL-1) of 4.6 nM.
